Assay results from publication PMC10349921 (Bioorganic & medicinal chemistry, 2022).

Biological target: human galectin 3 (Homo sapiens, UniProt P17931)
Assay: SPR analysis of binding of glycan ligands to immobilized human Gal-3
Settings: for Relative affinity: calculated relative to the free lactose

Chain of human galectin 3 (P17931 whole entry): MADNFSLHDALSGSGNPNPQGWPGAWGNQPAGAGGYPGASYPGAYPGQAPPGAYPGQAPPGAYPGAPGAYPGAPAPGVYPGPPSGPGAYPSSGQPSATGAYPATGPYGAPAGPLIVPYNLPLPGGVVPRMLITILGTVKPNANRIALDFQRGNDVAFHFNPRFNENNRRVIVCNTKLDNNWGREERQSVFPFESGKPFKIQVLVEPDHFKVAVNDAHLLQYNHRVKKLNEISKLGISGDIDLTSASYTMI

| Compound | Relative affinity | EC50 (SPR, Gal-3 immobilized on CM5 chip, ligand as analyte, 25 °C) [nM] | enhanced relative affinity (per glycan ligand) in comparison with free lactose (SPR, per glycan ligand) [fold] | Relative affinity per unit (calculated for each sugar unit on cyclodextrin, relative to free lactose) |
| --- | --- | --- | --- | --- |
| CC(=O)N[C@H]1[C@@H](OCCOCCOCCN=[N+]=[N-])O[C@H](CO)[C@H](O)[C@@H]1O[C@@H]1O[C@H](CO)[C@H](O)[C@H](O)[C@H]1O [mono TFD (2), 2-(2-(2-Azido)ethoxy)ethyl-2-actamido-2-desoxy-3-O-[-β-D-galactopyranosyl]-α-D-galactopyranoside] | < 1.47 |  |  |  |
| β-Cyclodextrin-GalNAc [CD-Tn (16)] | 1070 | 1370 ± 390 | 153 | 153 |
| CC(=O)N[C@H]1[C@@H](OCCOCCOCCN=[N+]=[N-])O[C@H](CO)[C@H](O)[C@@H]1O [mono Tn (1), 2-(2-(2-Azido)ethoxy)ethyl-2-actamido-2-desoxy-α-D-gal-actopyranoside] | < 1.47 |  |  |  |
| [N-]=[N+]=NCCOCCOCCO[C@@H]1O[C@H](CO)[C@@H](O[C@@H]2O[C@H](CO)[C@H](O)[C@H](O)[C@H]2O)[C@H](O)[C@H]1O [mono Lac (3)] | < 1.47 |  |  |  |
